# Molecular target: cAMP and cAMP-inhibited cGMP 3',5'-cyclic phosphodiesterase 10A (Homo sapiens, UniProt Q9Y233)
# Experiment: PDE10 Fluorescence Polarization (FP) Assay: The fluorescence polarization assay for cyclic nucleotide phosphodiesterases was performed using an IMAP FP kit supplied by Molecular Devices, Sunnyvale, Calif. (product # R8139). IMAPU technology has been applied previously to phosphodiesterase assays (Huang, W., et al., J. Biomol Screen, 2002, 7: 215). Assays were performed at room temperature in 384-well microtiter plates with an incubation volume of 20.2 uL. Solutions of test compounds were prepared in DMSO and serially diluted with DMSO to yield 8 uL of each of 10 solutions differing by 3-fold in concentration, at 32 serial dilutions per plate.
# cAMP and cAMP-inhibited cGMP 3',5'-cyclic phosphodiesterase 10A, sequence (Q9Y233 whole entry): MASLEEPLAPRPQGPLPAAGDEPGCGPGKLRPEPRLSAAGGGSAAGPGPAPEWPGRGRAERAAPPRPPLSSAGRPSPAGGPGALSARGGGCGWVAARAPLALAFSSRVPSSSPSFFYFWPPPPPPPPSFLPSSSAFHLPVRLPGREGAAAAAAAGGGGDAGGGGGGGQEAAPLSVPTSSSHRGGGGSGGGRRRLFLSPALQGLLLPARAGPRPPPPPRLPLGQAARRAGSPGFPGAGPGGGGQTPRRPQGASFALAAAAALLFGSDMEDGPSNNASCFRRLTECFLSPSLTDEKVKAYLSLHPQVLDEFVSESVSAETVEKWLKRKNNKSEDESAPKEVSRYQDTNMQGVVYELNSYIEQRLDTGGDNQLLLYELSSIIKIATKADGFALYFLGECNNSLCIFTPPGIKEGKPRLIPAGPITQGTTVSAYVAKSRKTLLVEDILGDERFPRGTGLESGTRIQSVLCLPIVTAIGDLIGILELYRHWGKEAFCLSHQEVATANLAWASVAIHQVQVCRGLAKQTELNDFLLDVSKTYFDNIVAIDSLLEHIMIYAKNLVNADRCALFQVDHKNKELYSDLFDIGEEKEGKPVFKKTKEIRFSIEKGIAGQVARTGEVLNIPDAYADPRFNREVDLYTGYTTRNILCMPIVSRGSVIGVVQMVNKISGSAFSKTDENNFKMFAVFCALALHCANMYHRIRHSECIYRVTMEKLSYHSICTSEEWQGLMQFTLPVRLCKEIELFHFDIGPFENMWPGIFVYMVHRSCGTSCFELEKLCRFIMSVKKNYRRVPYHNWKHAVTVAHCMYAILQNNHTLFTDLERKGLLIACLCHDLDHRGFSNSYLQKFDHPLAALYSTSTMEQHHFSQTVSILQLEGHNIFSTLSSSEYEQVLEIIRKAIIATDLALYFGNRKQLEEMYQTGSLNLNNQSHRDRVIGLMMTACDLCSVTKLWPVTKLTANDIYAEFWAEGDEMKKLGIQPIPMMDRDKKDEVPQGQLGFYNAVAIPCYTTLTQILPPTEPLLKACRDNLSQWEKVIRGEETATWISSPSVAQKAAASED
row,Compound,Ki
1,Cc1ccc([C@H]2C[C@@H]2COc2nc(C)ncc2-c2ccc(=O)n(CC#N)c2)nc1,3.48 nM
2,Cc1ncc(-c2cc(F)c(=O)n(C)c2)c(OC[C@H]2C[C@@H]2c2ccc3ccccc3n2)n1,0.041 nM

# From ChEMBL document CHEMBL3886562, “Substituted pyridone derivatives as PDE10 inhibitors” (2016)
